Measurements taken from article PMC6243750, “Behavioral Evidence and Olfactory Reception of a Single Alarm Pheromone Component in Halyomorpha halys” (Frontiers in Physiology, 2018).

What was measured:
H. halys OBP16 [1] = molecular target: T1, H. halys OBP16 (Halyomorpha halys, UniProt A0A1L2JGT7); experiment: Fluorescence binding of probe 1-NPN to OBP (Scatchard); conditions: dissociation constant of OBP16/1-NPN, 2 μM OBP, 50 mM Tris-HCl pH 7.4; read-out: KOBPx/1-NPN
T1 sequence (A0A1L2JGT7 23-177): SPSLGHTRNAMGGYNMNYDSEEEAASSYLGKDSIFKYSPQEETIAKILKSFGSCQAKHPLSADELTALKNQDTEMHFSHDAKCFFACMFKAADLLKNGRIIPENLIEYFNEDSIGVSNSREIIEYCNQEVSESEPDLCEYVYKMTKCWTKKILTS
Description: (§1) Emission fluorescence spectra were measured on a HORIBA FluoromMax®-4 fluorescence spectrophotometer in a right-angle configuration with a 1 cm light path quartz cuvette. The protein was dissolved in 50 mM Tris-HCl buffer, pH 7.4, while all ligands used in binding experiments were used as 1 mM methanol solutions. The excitation wavelength was 337 nm, and the range of the scanning emission wavelength was 380–450 nm.
(§2) The binding constants of OBPs with probe N-phenyl-1-naphtylamine (1-NPN) were determined. We first added 2 ml 50 mM Tris-HCl solution to the cuvette, then added the OBP until the concentration reached 2 μM, measured and recorded the emission spectrum, continued titration, and recorded the highest stable fluorescence intensity. The Scatchard equation was used to record the binding constant of each OPB with 1-NPN.

H. halys OBP8 [2] = molecular target: T2, H. halys OBP8 (Halyomorpha halys, UniProt A0A1N7TMV1); experiment: as above; conditions: dissociation constant of OBP8/1-NPN, 2 μM OBP, 50 mM Tris-HCl pH 7.4; read-out: KOBPx/1-NPN
T2 sequence (A0A1N7TMV1 23-143): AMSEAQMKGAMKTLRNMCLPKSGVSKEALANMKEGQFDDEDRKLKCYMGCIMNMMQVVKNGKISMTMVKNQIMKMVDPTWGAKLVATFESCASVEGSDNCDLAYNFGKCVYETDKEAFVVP
Description: as §1, §2

H. halys OBP4 [3] = molecular target: T3, H. halys OBP4 (Halyomorpha halys, UniProt A0A1L2JGP5); experiment: as above; conditions: dissociation constant of OBP4/1-NPN, 2 μM OBP, 50 mM Tris-HCl pH 7.4; read-out: KOBPx/1-NPN
T3 sequence (A0A1L2JGP5 20-212): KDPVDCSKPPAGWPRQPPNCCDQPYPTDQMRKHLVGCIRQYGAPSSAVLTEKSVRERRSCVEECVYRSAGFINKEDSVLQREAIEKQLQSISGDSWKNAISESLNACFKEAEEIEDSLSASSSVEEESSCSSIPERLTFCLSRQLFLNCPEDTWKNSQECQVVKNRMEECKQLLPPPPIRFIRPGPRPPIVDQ
Description: as §1, §2

H. halys OBP30 [4] = molecular target: T4, H. halys OBP30 (Halyomorpha halys, UniProt A0A1P8P1N8); experiment: as above; conditions: dissociation constant of OBP30/1-NPN, 2 μM OBP, 50 mM Tris-HCl pH 7.4; read-out: KOBPx/1-NPN
T4 sequence (A0A1P8P1N8 19-136): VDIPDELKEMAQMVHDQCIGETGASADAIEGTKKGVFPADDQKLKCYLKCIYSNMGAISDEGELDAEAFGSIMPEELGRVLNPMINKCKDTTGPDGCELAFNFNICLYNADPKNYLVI
Description: as §1, §2

H. halys OBP25 [5] = molecular target: T5, H. halys OBP25 (Halyomorpha halys, UniProt A0A1L2JGT3); experiment: as above; conditions: dissociation constant of OBP25/1-NPN, 2 μM OBP, 50 mM Tris-HCl pH 7.4; read-out: KOBPx/1-NPN
T5 sequence (A0A1L2JGT3 20-148): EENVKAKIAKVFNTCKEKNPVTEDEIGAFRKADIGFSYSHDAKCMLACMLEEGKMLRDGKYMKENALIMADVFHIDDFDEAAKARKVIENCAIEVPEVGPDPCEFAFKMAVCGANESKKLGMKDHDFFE
Description: as §1, §2

H. halys antennae = experiment: EAG recordings on excised antennae; set-up: species or system Halyomorpha halys; conditions: 10 μg dose, all developmental stages, versus n-hexane control
Description: EAG recordings were used to identify electrophysiological activities of H. halys at each developmental stage (female and male adults, and nymphal larvae). Each antenna of the brown marmorated stink bug was prepared following the standard procedures of cutting its tip and base and immediately mounting the excised antenna between two glass capillary Ag/AgCl electrodes filled with Kaissling saline (Tang et al., [2016]). The electrode at the distal end of the antenna was connected through an interface box to a signal acquisition interface board (IDAD; Syntech, Netherlands).
n-Hexane was used as the control, and 1 μg/μl (E)-2-decenal was used as the test solution. The measure dose was 10 μg, and the order of antennal exposure was air, n-hexane, and (E)-2-decenal. In total, 10 replicates were used. The direct voltage was 2 mv, the continuous flow velocity was 150 ml/min, the stimulated flow velocity was 20 ml/min, the stimulation time was 0.1 s, and the stimulus intervals were 10 s.
The following equation was used to calculate the EAG recording result:
Relative response value = sample response value − control response value.

H. halys adults = experiment: Grouped dispersal (repellency) test; format: in vivo, Halyomorpha halys; conditions: 10 μg, 60 s
Description: A group test was performed first to assess the repellency of (E)-2-decenal to H. halys adults. In total, 10–20 adults were collected and moved into a plastic rearing box for 1 h to let the adults aggregate and rest before the test. A filter paper loaded with 10 μg (E)-2-decenal was then put into a syringe, and the volatile was released into the air at a distance of 1 cm from the aggregated H. halys adults. The test lasted for 60 s, and the number of dispersed H. halys were counted and recorded. n-Hexane was used as the control following the same protocol. In total, 10 replicates were performed for each treatment.

H. halys OBP16 [6] = molecular target: T1, H. halys OBP16; experiment: Competitive fluorescence-binding assay with 1-NPN as probe
Description: as §1
(§3) The binding abilities of the OBPs and (E)-2-decenal were later investigated. Fluorescence intensities were automatically subtracted from blank fluorescence values when harvested from instrument. The excitation wavelength was set at 337 nm, and the range of the scanning emission wavelength was 380–450 nm. First, 2 mL 50-mM Tris-HCl solution was added, and then the OBP and 1-NPN were added until the concentration was 2 μM. The highest stable fluorescence intensity was record. Then, we added the (E)-2-decenal, which was dissolved in methanol in the cuvette, and continued the titration from 2 μM until the fluorescence intensity was stable. The highest stable fluorescence intensity was recorded. Each OBP was tested three times. The dissociation constant was calculated based on the formula Kd = [IC50]/(1 + [1-NPN]/K1−NPN), where IC50 represents the (E)-2-decenal concentration when the fluorescence intensity of [OBP/1-NPN] declined to the half of the highest value, [1-NPN] represents the dissociative concentration of 1-NPN, and K1−NPN represents the dissociation constant of OBP/1-NPN.

H. halys OBP8 [7] = molecular target: T2, H. halys OBP8; experiment: as above
Description: as §1, §3

H. halys OBP4 [8] = molecular target: T3, H. halys OBP4; experiment: as above
Description: as §1, §3

H. halys OBP30 [9] = molecular target: T4, H. halys OBP30; experiment: as above
Description: as §1, §3

H. halys OBP25 [10] = molecular target: T5, H. halys OBP25; experiment: as above
Description: as §1, §3

entomopathogenic fungi = test system: entomopathogenic fungi; set-up: method as in Weber et al., 2017b; conditions: ref Weber et al., 2017b; cited from earlier work
adult N. viridula = test system: adult N. viridula; set-up: method as in Lockwood and Story, 1987; conditions: ref Lockwood and Story, 1987; cited from earlier work
H. halys = test system: H. halys; set-up: method as in Zhang et al., 2014a; conditions: combined with tridecane; ref Zhang et al., 2014a; cited from earlier work
[11] = test system: H. halys adults and 1st to 5th instar nymphs; experiment: Route test with individual stink bugs on circular track; format: in vivo, Halyomorpha halys
Description: To identify the alarm pheromone activity in each developmental stage of H. halys (female and male adults, and 1st to 5th instar nymphs), we performed a behavioral test (Noge et al., [2015]) using a gradient of (E)-2-decenal solutions (10 μg/μl, 1 μg/μl, 100 ng/μl, 10 ng/μl, and 1 ng/μl) for the nymphs and the last four doses for both genders of adults. A circular track was made by joining the ends of a silicone tube (100 cm long, 1.2 cm inner diameter), and the track was placed on a tripod stand in the behavioral testing laboratory (25°C ± 1°C, relative humidity = 50% ± 10%). An individual H. halys was placed gently on the track and left for 5 min until it was motionless. Different 10-μl concentrations of (E)-2-decenal were loaded onto a filter paper disk (2 cm diameter), and the disk was then placed 2 mm from the stink bug's antenna. The time taken for the nymph or adult stink bug to change direction and the distance it moved away from the starting point within 15 s were observed and recorded. […] Every developmental stage of H. halys for each chemical treatment was tested 15 times.

male and female H. halys = test system: male and female H. halys; set-up: method as in Zhong et al., 2017; conditions: ref Zhong et al., 2017; cited from earlier work
[12] = Kd = [IC50]/(1 + [1-NPN]/K1-NPN), OBP and 1-NPN 2 μM
[13] = concentration at which [OBP/1-NPN] fluorescence declined to half

## c1ccc(Nc2cccc3ccccc23)cc1 [1-NPN, N-phenyl-1-naphtylamine]
H. halys OBP16 [1]
  Kd: 1.13 ± 0.08 µM
H. halys OBP8 [2]
  Kd: 2.74 ± 0.8 µM
H. halys OBP4 [3]
  Kd: 9.18 ± 2.67 µM
H. halys OBP30 [4]
  Kd: 2.79 ± 0.74 µM
H. halys OBP25 [5]
  Kd: 0.51 ± 0.3 µM

## CCCCCCC/C=C/C=O [(E)-2-decenal]
H. halys antennae
  EAG responses: significantly greater electrophysiological responses compared with the n-hexane control, except for the 1st instar nymphs
H. halys adults
  Repellent rates: 84.1 ± 5.14%
H. halys OBP16 [6]; [12]
  Kd: 6.16 ± 0.42 µM
H. halys OBP16 [6]; [13]
  IC50: 13.7 ± 0.94 µM
H. halys OBP8 [7]; [12]
  Kd: 8.61 ± 0.24 µM
H. halys OBP8 [7]; [13]
  IC50: 13.7 ± 0.38 µM
H. halys OBP4 [8]; OBP4, in words
  binding activity to (E)-2-decenal: did not show a good binding activity
H. halys OBP4 [8]; OBP4, Kd = [IC50]/(1 + [1-NPN]/K1-NPN), OBP and 1-NPN 2 μM
  Kd: 26 ± 3.01 µM
H. halys OBP4 [8]; OBP4, concentration at which [OBP/1-NPN] fluorescence declined to half
  IC50: 31.3 ± 3.61 µM
H. halys OBP30 [9]; [12]
  Kd: 10.5 ± 0.64 µM
H. halys OBP30 [9]; [13]
  IC50: 16.7 ± 1.01 µM
H. halys OBP25 [10]; [12]
  Kd: 2.21 ± 0.064 µM
H. halys OBP25 [10]; [13]
  IC50: 7.18 ± 0.21 µM
Entomopathogenic fungi
  effect on entomopathogenic fungi: fungistatic effect and inhibits spore germination
Adult N. viridula
  alarm effects: no alarm effects
H. halys
  feeding deterrence: strong feeding deterrent
[11]; 1 μg and 10 μg, all stages of H. halys
  repellence compared with n-hexane control: significantly repelled
[11]; 3rd to 5th instar nymphs, all tested doses, within 15 s
  moving distances compared with n-hexane control: significantly longer moving distances
[11]; 5th instar nymphs, response time
  repellent effect starting at a tested dose: 10 ng
Male and female H. halys
  repellence in Y-tube assays: strongly repel
